In patent US8916702B2 (priority 2012, dated 2014):
Like-named read-outs stand apart in the source and are kept apart here.

Test system: HCV pseudoparticles (genotype 1a HCV E1 and E2 envelope, H77C isolate)
Assay: microbe, parasite or virus in culture
Assay type: cell-based
Details: Hepatitis C virus
[1] = Huh-7, read-out: Activity (EC50 class), HCV pseudoparticles (genotype 1a, H77C) in Huh7 cells, EC50 expressed as class A/B
[2] = Huh-7, 48 h, read-out: Activity (EC50 class), HCV pseudoparticles, Huh7 cells, luciferase 2 days after infection, average of duplicates

Q: `COC(=O)[C@H](CCNC(=O)C(=O)Nc1ccc(-n2ccc(C(F)(F)F)n2)cc1)NC(=O)c1ccc(Nc2nc(NC3(c4ccc(Cl)cc4)CC3)nc(OCC(F)(F)F)n2)cc1` [Compound 3127] was tested. Which EC50 [1] did it give?
A: The EC50 was 0.01 to 10 nM.

Q: How did the EC50 [1] turn out when `COc1cccc(NC(=O)C(=O)NCC(C)(C)CNC(=O)c2ccc(Nc3nc(NC4(c5ccc(Cl)cc5)CC4)nc(OCC(F)(F)F)n3)cc2)c1` [Compound 3008] was run?
A: The EC50 was 0.01 to 10 nM.

Q: With `COC(=O)[C@H](CNC(=O)C(=O)Nc1cccc(CCC(N)=O)c1)NC(=O)c1ccc(Nc2nc(NC3(c4ccc(Cl)cc4)CC3)nc(OCC(F)(F)F)n2)cc1` [Compound 3738] as the molecule, how does the EC50 [2] read?
A: The EC50 was 0.01 to 10 nM.

Q: How did the EC50 [1] turn out when `COCc1ccc(NC(=O)C(=O)NCC[C@H](NC(=O)c2ccc(Nc3nc(NC4(c5ccc(Cl)cc5)CC4)nc(OCC(F)(F)F)n3)cc2)C(=O)OC)cc1` [Compound 3322] was run?
A: The EC50 was 0.01 to 10 nM.

Q: For `COC(=O)[C@H](CNC(=O)C(=O)Nc1cccc(S(C)(=O)=O)c1)NC(=O)c1ccc(Nc2nc(NC3(c4ccc(Cl)cc4)CC3)nc(OCC(F)(F)F)n2)cc1` [Compound 3707], which EC50 [2] is on record?
A: The EC50 was 0.01 to 10 nM.

Q: Which EC50 (Huh-7, 48 h, read-out: Activity (EC50 class), HCV pseudoparticle infection of Huh7 cells, luciferase 2 days after infection, EC50 expressed as class A/B) does the source give for `CN(C(=O)C(=O)NC[C@H](NC(=O)c1ccc(Nc2nc(NC3(c4ccc(Cl)cc4)CC3)nc(OCC(F)(F)F)n2)cc1)C(=O)O)c1ccccc1` [Compound 1365] here?
A: Its EC50 is 0.01 to 10 nM.

Q: `CC(C)(CNC(=O)C(N)=O)CNC(=O)c1ccc(Nc2nc(NC3(c4ccc(Cl)cc4)CC3)nc(OCC(F)(F)F)n2)c(F)c1` [Compound 3386] was tested. Which EC50 [1] did it give?
A: The EC50 was 0.01 to 10 nM.

Q: How did the EC50 [1] turn out when `COC(=O)[C@H](CNC(=O)C(=O)Nc1ccc(N2CCCC2=O)cc1)NC(=O)c1ccc(Nc2nc(NC3(c4ccc(Cl)cc4)CC3)nc(OCC(F)(F)F)n2)cc1` [Compound 3097] was run?
A: The EC50 was 0.01 to 10 nM.
